Data reported in patent publication US20050228188A1, “Astaxanthin medium-chain fatty acid ester, process for producing the same and composition containing the ester” (Suntory Limited, priority 2002, published 2005).

Assay: Digestibility of astaxanthins in rats: astaxanthin content in blood plasma and liver by HPLC after oral administration
Conditions: for digestibility (content of astaxanthin in blood plasma and liver) compared with astaxanthin extracted from Haematococcus (Astax9000H): rat, in vivo, po, 100 mg/kg
Procedure: Using a commercially available astaxanthin extracted from Chlorophyceae of Haematococcus (Itano, product name: Astax9000H) and astaxanthins mono- and di-esterified with a medium-chain fatty acid (Asta-C8-monoester and Asta-C8-diester), the digestibility of these astaxanthins was studied using rats. For the experiment, these astaxanthins were diluted with olive oil so as to obtain a ratio of 100 mg/kg in the conversion of a free astaxanthin, and the diluted astaxanthins were administered to rats (Wister rat). The content of astaxanthin contained in the blood (blood plasma) and the liver of each rat was measured using HPLC. The blood and liver were sampled at 3, 5, 7 and 10 hours after the administration.

| digestibility (content of astaxanthin in blood plasma and liver) compared with astaxanthin extracted from Haematococcus (Astax9000H) | digestibility, rank among the astaxanthins tested (rats, oral, 100 mg/kg in conversion of free astaxanthin, blood plasma and liver at 3, 5, 7 and 10 hours) | Structure (SMILES) |
| --- | --- | --- |
| much better digestibility | – | CCCCCCCC(=O)O[C@H]1CC(C)(C)C(/C=C/C(C)=C/C=C/C(C)=C/C=C/C=C(C)/C=C/C=C(C)/C=C/C2=C(C)C(=O)[C@@H](OC(=O)CCCCCCC)CC2(C)C)=C(C)C1=O [Asta-C8-diester, astaxanthin octanoic acid diester] |
| much better digestibility | most digested | CCCCCCCC(=O)OC1CC(C)(C)C(C=CC(C)=CC=CC(C)=CC=CC=C(C)C=CC=C(C)C=CC2=C(C)C(=O)C(O)CC2(C)C)=C(C)C1=O (stereo not drawn) [Asta-C8-monoester, astaxanthin octanoic acid monoester] |
